Values after ≈ are worked out from the molar mass of the structure shown.
What was measured:
Type in all cases: functional
[1] = test system: Mycobacterium tuberculosis; experiment: Antibacterial activity against Mycobacterium tuberculosis Rv8 harboring embB ATG-GTG (M306V) mutation in embB by modified conventional agar proportion method
[2] = test system: Mycobacterium tuberculosis; experiment: Antibacterial activity against HYG cassette-positive Mycobacterium tuberculosis RvAS1 harboring embB M306V mutant gene by modified conventional agar proportion method
[3] = test system: Mycobacterium tuberculosis; experiment: Antibacterial activity against HYG cassette-positive Mycobacterium tuberculosis BAS7 harboring embB M306I mutant gene by modified conventional agar proportion method
[4] = test system: Mycobacterium tuberculosis; experiment: Antibacterial activity against HYG cassette-positive Mycobacterium tuberculosis BAS5 harboring embB M306V mutant gene by modified conventional agar proportion method
[5] = test system: Mycobacterium tuberculosis; experiment: Antibacterial activity against Mycobacterium tuberculosis B84 harboring embB ATG-ATC (M306I) mutation in embB by modified conventional agar proportion method
[6] = test system: Mycobacterium tuberculosis; experiment: Antibacterial activity against HYG cassette-positive Mycobacterium tuberculosis B5202 harboring embB M306V mutant gene by modified conventional agar proportion method
[7] = test system: Mycobacterium tuberculosis; experiment: Antibacterial activity against Mycobacterium tuberculosis B70 harboring embB ATG-ATC (M306I) mutation in embB by modified conventional agar proportion method
[8] = test system: Mycobacterium tuberculosis; experiment: Antibacterial activity against Mycobacterium tuberculosis B97 harboring embB ATG-ATC (M306I) mutation in embB by modified conventional agar proportion method
[9] = test system: Mycobacterium tuberculosis; experiment: Antibacterial activity against HYG cassette-positive Mycobacterium tuberculosis RvAS4 harboring embB M306I mutant gene by modified conventional agar proportion method
[10] = test system: Mycobacterium tuberculosis; experiment: Antibacterial activity against HYG cassette-positive Mycobacterium tuberculosis B5402 harboring embB M306I mutant gene by modified conventional agar proportion method
[11] = test system: Mycobacterium tuberculosis; experiment: Antibacterial activity against Mycobacterium tuberculosis Rv23 harboring embB ATG-GTG (M306V) mutation in embB by modified conventional agar proportion method
[12] = test system: Mycobacterium tuberculosis; experiment: Antibacterial activity against Mycobacterium tuberculosis Rv31 harboring embB GAT-TAT (D328Y) mutation in embB by modified conventional agar proportion method
[13] = test system: Mycobacterium tuberculosis; experiment: Antibacterial activity against HYG cassette-positive Mycobacterium tuberculosis Rv8102 harboring embB M306V mutant gene by modified conventional agar proportion method
[14] = test system: Mycobacterium tuberculosis; experiment: Antibacterial activity against Mycobacterium tuberculosis B55 harboring embB ATG-GTG (M306V) mutation in embB by modified conventional agar proportion method
[15] = test system: Mycobacterium tuberculosis; experiment: Antibacterial activity against Mycobacterium tuberculosis Rv21 harboring embB GAT-TAT (D328Y) mutation in embB by modified conventional agar proportion method
[16] = test system: Mycobacterium tuberculosis; experiment: Antibacterial activity against Mycobacterium tuberculosis Rv11 harboring embB ATG-CTG (M306L) mutation in embB by modified conventional agar proportion method
[17] = test system: Mycobacterium tuberculosis; experiment: Antibacterial activity against Mycobacterium tuberculosis B92 harboring embB GAC-GCC (D354A) mutation in embB by modified conventional agar proportion method
[18] = test system: Mycobacterium tuberculosis; experiment: Antibacterial activity against HYG cassette-positive Mycobacterium tuberculosis RvAS3 harboring embB M306I mutant gene by modified conventional agar proportion method
[19] = test system: Mycobacterium tuberculosis; experiment: Antibacterial activity against HYG cassette-negative EMB-resistant Mycobacterium tuberculosis Rv44 harboring embB M306I mutant gene by modified conventional agar proportion method
[20] = test system: Mycobacterium tuberculosis; experiment: Antibacterial activity against HYG cassette-negative EMB-resistant Mycobacterium tuberculosis B52 harboring embB M306V mutant gene by modified conventional agar proportion method
[21] = test system: Mycobacterium tuberculosis; experiment: Antibacterial activity against HYG cassette-positive Mycobacterium tuberculosis Rv4402 harboring embB M306I mutant gene by modified conventional agar proportion method
[22] = test system: Mycobacterium tuberculosis; experiment: Antibacterial activity against Mycobacterium tuberculosis B64 harboring embB ATG-GTG (M306V) mutation in embB by modified conventional agar proportion method
[23] = test system: Mycobacterium tuberculosis; experiment: Antibacterial activity against Mycobacterium tuberculosis Rv44 harboring embB ATG-ATA (M306I) mutation in embB by modified conventional agar proportion method
[24] = test system: Mycobacterium tuberculosis; experiment: Antibacterial activity against HYG cassette-positive Mycobacterium tuberculosis RvAS2 harboring embB M306V mutant gene by modified conventional agar proportion method
[25] = test system: Mycobacterium tuberculosis; experiment: Antibacterial activity against Mycobacterium tuberculosis B96 harboring embB GAT-TAT (D328Y) mutation in embB by modified conventional agar proportion method
[26] = test system: Mycobacterium tuberculosis; experiment: Antibacterial activity against Mycobacterium tuberculosis B59 harboring embB ATG-GTG (M306V) mutation in embB by modified conventional agar proportion method
[27] = test system: Mycobacterium tuberculosis; experiment: Antibacterial activity against HYG cassette-positive Mycobacterium tuberculosis BAS6 harboring embB M306V mutant gene by modified conventional agar proportion method
[28] = test system: Mycobacterium tuberculosis; experiment: Antibacterial activity against Mycobacterium tuberculosis B53 harboring embB GAT-TAT (D328Y) mutation in embB by modified conventional agar proportion method
[29] = test system: Mycobacterium tuberculosis; experiment: Antibacterial activity against Mycobacterium tuberculosis B95 harboring embB ATG-ATA (M306I) mutation in embB by modified conventional agar proportion method
[30] = test system: Mycobacterium tuberculosis; experiment: Antibacterial activity against Mycobacterium tuberculosis Rv7 harboring embB ATG-GTG (M306V) mutation in embB by modified conventional agar proportion method
[31] = test system: Mycobacterium tuberculosis; experiment: Antibacterial activity against Mycobacterium tuberculosis Rv18 harboring embB ATG-GTG (M306V) mutation in embB by modified conventional agar proportion method
[32] = test system: Mycobacterium tuberculosis; experiment: Antibacterial activity against Mycobacterium tuberculosis B52 harboring embB ATG-GTG (M306V) mutation in embB by modified conventional agar proportion method
[33] = test system: Mycobacterium tuberculosis; experiment: Antibacterial activity against HYG cassette-positive Mycobacterium tuberculosis BAS8 harboring embB M306I mutant gene by modified conventional agar proportion method
[34] = test system: Mycobacterium tuberculosis; experiment: Antibacterial activity against Mycobacterium tuberculosis B99 harboring embB CGC-CAC (R321H) mutation in embB by modified conventional agar proportion method
[35] = test system: Mycobacterium tuberculosis; experiment: Antibacterial activity against Mycobacterium tuberculosis B56 harboring embB ATG-GTG (M306V) mutation in embB by modified conventional agar proportion method
[36] = test system: Mycobacterium tuberculosis; experiment: Antibacterial activity against Mycobacterium tuberculosis B51 harboring embB ATG-ACG (M306T) mutation in embB by modified conventional agar proportion method
[37] = test system: Mycobacterium tuberculosis; experiment: Antibacterial activity against HYG cassette-negative EMB-resistant Mycobacterium tuberculosis Rv8 harboring embB M306V mutant gene by modified conventional agar proportion method
[38] = test system: Mycobacterium tuberculosis; experiment: Antibacterial activity against Mycobacterium tuberculosis Rv39 harboring embB GGC-CGC (G324R) mutation in embB by modified conventional agar proportion method
[39] = test system: Mycobacterium tuberculosis; experiment: Antibacterial activity against Mycobacterium tuberculosis B79 harboring embB GGC-CGC (G324R) mutation in embB by modified conventional agar proportion method
[40] = test system: Mycobacterium tuberculosis; experiment: Antibacterial activity against Mycobacterium tuberculosis B74 harboring embB GAC-GGC (D300G) mutation in embB by modified conventional agar proportion method
[41] = test system: Mycobacterium tuberculosis; experiment: Antibacterial activity against Mycobacterium tuberculosis B85 harboring embB ATG-ATA (M306I) mutation in embB by modified conventional agar proportion method
[42] = test system: Mycobacterium tuberculosis; experiment: Antibacterial activity against Mycobacterium tuberculosis B54 harboring embB ATG-ATA (M306I) mutation in embB by modified conventional agar proportion method
[43] = test system: Mycobacterium tuberculosis; experiment: Antibacterial activity against Mycobacterium tuberculosis Rv17 harboring embB ATG-GTG (M306V) mutation in embB by modified conventional agar proportion method
[44] = test system: Mycobacterium tuberculosis; experiment: Antibacterial activity against HYG cassette-negative EMB-resistant Mycobacterium tuberculosis B54 harboring embB M306I mutant gene by modified conventional agar proportion method

For `CC[C@@H](CO)NCCN[C@@H](CC)CO` [ETHAMBUTOL], the MIC [1] was 20 µg/mL (≈ 97.9 µM), the MIC [2] was 20 µg/mL (≈ 97.9 µM) and the MIC [3] was 10 µg/mL (≈ 48.9 µM). The MIC [4] was 20 µg/mL (≈ 97.9 µM), the MIC [5] was 20 µg/mL (≈ 97.9 µM) and the MIC [6] was 20 µg/mL (≈ 97.9 µM). For the same molecule, the MIC [7] was 40 µg/mL (≈ 196 µM), the MIC [8] was 20 µg/mL (≈ 97.9 µM) and the MIC [9] was 10 µg/mL (≈ 48.9 µM). It also gave an MIC [10] of 20 µg/mL (≈ 97.9 µM), an MIC [11] of 20 µg/mL (≈ 97.9 µM) and an MIC [12] of 20 µg/mL (≈ 97.9 µM). It also gave an MIC [13] of 20 µg/mL (≈ 97.9 µM), an MIC [14] of 20 µg/mL (≈ 97.9 µM) and an MIC [15] of 20 µg/mL (≈ 97.9 µM). It also gave an MIC [16] of 20 µg/mL (≈ 97.9 µM), an MIC [17] of 20 µg/mL (≈ 97.9 µM) and an MIC [18] of 10 µg/mL (≈ 48.9 µM). It also gave an MIC [19] of 20 µg/mL (≈ 97.9 µM), an MIC [20] of 20 µg/mL (≈ 97.9 µM) and an MIC [21] of 20 µg/mL (≈ 97.9 µM). For the same molecule, the MIC [22] was 20 µg/mL (≈ 97.9 µM), the MIC [23] was 20 µg/mL (≈ 97.9 µM) and the MIC [24] was 20 µg/mL (≈ 97.9 µM). The MIC [25] was 20 µg/mL (≈ 97.9 µM), the MIC [26] was 20 µg/mL (≈ 97.9 µM) and the MIC [27] was 20 µg/mL (≈ 97.9 µM). The MIC [28] was 20 µg/mL (≈ 97.9 µM), the MIC [29] was 20 µg/mL (≈ 97.9 µM) and the MIC [30] was 20 µg/mL (≈ 97.9 µM). For the same molecule, the MIC [31] was 20 µg/mL (≈ 97.9 µM), the MIC [32] was 20 µg/mL (≈ 97.9 µM) and the MIC [33] was 10 µg/mL (≈ 48.9 µM). The MIC [34] was 10 µg/mL (≈ 48.9 µM), the MIC [35] was 20 µg/mL (≈ 97.9 µM) and the MIC [36] was 20 µg/mL (≈ 97.9 µM). For the same molecule, the MIC [37] was 20 µg/mL (≈ 97.9 µM), the MIC [38] was 20 µg/mL (≈ 97.9 µM) and the MIC [39] was 20 µg/mL (≈ 97.9 µM). It also gave an MIC [40] of 10 µg/mL (≈ 48.9 µM), an MIC [41] of 20 µg/mL (≈ 97.9 µM) and an MIC [42] of 20 µg/mL (≈ 97.9 µM). For the same molecule, the MIC [43] was 20 µg/mL (≈ 97.9 µM) and the MIC [44] was 20 µg/mL (≈ 97.9 µM).
